Assays:
Type in all cases: in vivo
[1] = system: canarygrass (Phalaris minor); experiment: Test B postemergence plant response; settings: Postemergence; for Canarygrass plant response rating: 250 g ai/ha, scale 0 to 100
Summary of the method: (§1)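 Visual ratings from 0 (no effect) to 100 (complete control), made against controls 13–15 days after treatment, kept in a greenhouse. Compounds were applied postemergence to potted plants at the 1- to 4-leaf stage (2–18 cm).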

[2] = system: chickweed (Stellaria media); experiment: Test B postemergence plant response; settings: Postemergence; for Chickweed plant response rating: 250 g ai/ha, scale 0 to 100
Summary of the method: as §1

[3] = system: windgrass (Apera spica-venti); experiment: Test B postemergence plant response; settings: Postemergence, scale 0 (no effect) to 100 (complete control)
Summary of the method: as §1

[4] = system: winter barley (Hordeum vulgare); experiment: Test B postemergence plant response; settings: Postemergence; for Barley plant response rating: 250 g ai/ha, scale 0 to 100
Summary of the method: as §1

[5] = system: rice (Oryza sativa); experiment: Test B flooded paddy test; settings: for Plant response rating, Flood, Rice: 250 g ai/ha, flooded paddy test, visual rating on 0 to 100 scale (0 no effect, 100 complete control) after 13 to 15 days; for Plant response rating, Rice: Flood (flooded paddy test), 13 to 15 days
Summary of the method: (§2)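 Post-flood paddy application: compounds are introduced into water 3 cm deep over the soil, reaching plants at the 2-leaf stage. The water level is maintained, and after 13–15 days under greenhouse conditions, response is judged by eye relative to controls, where 100 means complete control.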

[6] = system: umbrella sedge (Cyperus difformis); experiment: Test B flooded paddy test; settings: for Plant response rating, Flood, Sedge, Umbrella: 250 g ai/ha, flooded paddy test, visual rating on 0 to 100 scale (0 no effect, 100 complete control) after 13 to 15 days; for Plant response rating, Sedge, Umbrella: Flood (flooded paddy test), 13 to 15 days
Summary of the method: as §2

[7] = system: ducksalad (Heteranthera limosa); experiment: Test B flooded paddy test; settings: for Plant response rating, Flood, Ducksalad: 250 g ai/ha, flooded paddy test, visual rating on 0 to 100 scale (0 no effect, 100 complete control) after 13 to 15 days; for Plant response rating, Ducksalad: Flood (flooded paddy test), 13 to 15 days
Summary of the method: as §2

[8] = system: barnyardgrass (Echinochloa crus-galli); experiment: Test B flooded paddy test; settings: for Plant response rating, Flood, Barnyardgrass: 250 g ai/ha, flooded paddy test, visual rating on 0 to 100 scale (0 no effect, 100 complete control) after 13 to 15 days; for Plant response rating, Barnyardgrass: Flood (flooded paddy test), 13 to 15 days
Summary of the method: as §2

[9] = system: goosegrass (Eleusine indica); experiment: Test B pre-/postemergence plant response; settings: Preemergence, 62 g ai/ha; scale 0 to 100, 0 no effect, 100 complete control
[10] = system: sunflower (common oilseed sunflower, Helianthus annuus); experiment: Test B pre-/postemergence plant response; settings: Preemergence; for Sunflower plant response rating: 125 g ai/ha
Summary of the method: (§3)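 Each species received compound formulated in non-phytotoxic solvent with surfactant, either at planting into a loam and sand blend or as a foliar spray once plants reached 2 to 18 cm in peat-based medium. Plants stayed in the greenhouse 13 to 15 days before visual evaluation against controls, scored 0 (no effect) to 100 (complete control).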

[11] = system: nightshade (eastern black nightshade, Solanum ptycanthum); experiment: Test B pre-/postemergence plant response; settings: Preemergence; for Nightshade plant response rating: 125 g ai/ha
Summary of the method: as §3

[12] = system: bermudagrass (Cynodon dactylon); experiment: Test B pre-/postemergence plant response
Summary of the method: as §3

[13] = system: morningglory (Ipomoea coccinea); experiment: Test B pre-/postemergence plant response
Summary of the method: as §3

[14] = system: galium (catchweed bedstraw, Galium aparine); experiment: Test B pre-/postemergence plant response; settings: Preemergence; for Galium plant response rating: 125 g ai/ha
Summary of the method: as §3

[15] = 31 g ai/ha, scale 0 to 100 (0 no effect, 100 complete control)
[16] = 62 g ai/ha, scale 0 (no effect) to 100 (complete control), 13 to 15 days
[17] = 125 g ai/ha, visual rating after 13 to 15 days, scale 0 (no effect) to 100 (complete control)
[18] = 125 g ai/ha, visual rating after 13 to 15 days
[19] = 31 g ai/ha, scale of 0 to 100 where 0 is no effect and 100 is complete control
[20] = 62 g ai/ha, scale 0 to 100, 0 is no effect, 100 is complete control
[21] = 125 g ai/ha, scale 0 to 100, 0 is no effect, 100 is complete control
[22] = 62 g ai/ha, scale 0 to 100, 0 no effect, 100 complete control
[23] = 250 g ai/ha, Preemergence, 0 to 100 scale
[24] = Postemergence, 31 g ai/ha, scale 0 to 100 (0 no effect, 100 complete control)
[25] = Postemergence, 62 g ai/ha, scale 0 (no effect) to 100 (complete control), 13 to 15 days
[26] = Postemergence, 125 g ai/ha, visual rating after 13 to 15 days, scale 0 (no effect) to 100 (complete control)
[27] = Postemergence, 250 g ai/ha, scale 0 to 100
[28] = Preemergence, 31 g ai/ha, scale 0 to 100 (0 no effect, 100 complete control)
[29] = Preemergence, 62 g ai/ha, scale 0 to 100, 0 no effect, 100 complete control
[30] = Preemergence, 125 g ai/ha, 0 to 100 scale

O=C1CCCC(O)=C1C(=O)c1cnc(-c2ccccc2)n(-c2ccccc2Br)c1=O [Compound 37]
Plant response rating, Canarygrass [1, 15]: 0
Plant response rating, Canarygrass [1, 16]: 5
Plant response rating, Canarygrass [1, 17]: 10
Canarygrass plant response rating [1]: 30
Plant response rating, Chickweed [2, 15]: 80
Plant response rating, Chickweed [2, 16]: 80
Plant response rating, Chickweed [2, 17]: 85
Chickweed plant response rating [2]: 100
Plant response rating, Windgrass ([3]; 62 g ai/ha, 13 to 15 days): 30
Plant response rating, Windgrass [3, 18]: 50
Plant response rating, Barley [4, 15]: 0
Plant response rating, Barley [4, 16]: 0
Plant response rating, Barley [4, 17]: 0
Barley plant response rating [4]: 0
Plant response rating, Flood, Rice [5]: 20
Plant response rating, Rice [5, 19]: 0
Plant response rating, Rice [5, 20]: 0
Plant response rating, Rice [5, 21]: 0
Plant response rating, Flood, Sedge, Umbrella [6]: 40
Plant response rating, Sedge, Umbrella [6, 19]: 0
Plant response rating, Sedge, Umbrella [6, 20]: 20
Plant response rating, Sedge, Umbrella [6, 21]: 30
Plant response rating, Flood, Ducksalad [7]: 60
Plant response rating, Ducksalad [7, 19]: 0
Plant response rating, Ducksalad [7, 20]: 30
Plant response rating, Ducksalad [7, 21]: 50
Plant response rating, Flood, Barnyardgrass [8]: 0
Plant response rating, Barnyardgrass [8, 19]: 0
Plant response rating, Barnyardgrass [8, 20]: 0
Plant response rating, Barnyardgrass [8, 21]: 0
Plant response rating, Goosegrass [9]: 0
Plant response rating, Sunflower ([10]; 250 g ai/ha, 0 to 100 scale): 90
Plant response rating, Sunflower [10, 15]: 0
Sunflower plant response rating ([10]; 0 to 100 scale): 45
Plant response rating, Nightshade ([11]; 250 g ai/ha, 0 to 100 scale): 85
Plant response rating, Nightshade [11, 15]: 0
Plant response rating, Nightshade [11, 22]: 40
Nightshade plant response rating ([11]; 0 to 100 scale): 80
Plant response rating, Bermudagrass [12, 23]: 100
Plant response rating, Bermudagrass [12, 24]: 85
Plant response rating, Bermudagrass [12, 25]: 90
Plant response rating, Bermudagrass [12, 26]: 98
Bermudagrass plant response rating [12, 27]: 100
Plant response rating, Bermudagrass [12, 28]: 10
Plant response rating, Bermudagrass [12, 29]: 80
Bermudagrass plant response rating [12, 30]: 98
Plant response rating, Morningglory [13, 23]: 0
Plant response rating, Morningglory [13, 25]: 70
Plant response rating, Morningglory [13, 26]: 75
Plant response rating, Morningglory [13, 28]: 0
Plant response rating, Morningglory [13, 29]: 0
Morningglory plant response rating [13, 30]: 0
Plant response rating, Galium ([14]; 250 g ai/ha, 0 to 100 scale): 100
Plant response rating, Galium [14, 15]: 0
Plant response rating, Galium [14, 22]: 10
Galium plant response rating ([14]; 0 to 100 scale): 30

Cc1ccc(-n2c(-c3cccc(Cl)c3)ncc(C(=O)C3=C(O)CCCC3=O)c2=O)cc1 [Compound 39]
Plant response rating, Canarygrass [1, 15]: 0
Plant response rating, Canarygrass [1, 16]: 0
Plant response rating, Canarygrass [1, 17]: 0
Canarygrass plant response rating [1]: 20
Plant response rating, Chickweed [2, 15]: 98
Plant response rating, Chickweed [2, 16]: 100
Plant response rating, Chickweed [2, 17]: 100
Chickweed plant response rating [2]: 100
Plant response rating, Windgrass ([3]; 62 g ai/ha, 13 to 15 days): 0
Plant response rating, Windgrass [3, 18]: 5
Plant response rating, Barley [4, 15]: 0
Plant response rating, Barley [4, 16]: 0
Plant response rating, Barley [4, 17]: 0
Barley plant response rating [4]: 10
Plant response rating, Flood, Rice [5]: 15
Plant response rating, Rice [5, 20]: 0
Plant response rating, Flood, Sedge, Umbrella [6]: 90
Plant response rating, Sedge, Umbrella [6, 20]: 90
Plant response rating, Flood, Ducksalad [7]: 90
Plant response rating, Ducksalad [7, 20]: 80
Plant response rating, Flood, Barnyardgrass [8]: 30
Plant response rating, Barnyardgrass [8, 20]: 0
Plant response rating, Goosegrass [9]: 100
Plant response rating, Sunflower ([10]; 250 g ai/ha, 0 to 100 scale): 65
Plant response rating, Sunflower [10, 15]: 0
Sunflower plant response rating ([10]; 0 to 100 scale): 25
Plant response rating, Nightshade ([11]; 250 g ai/ha, 0 to 100 scale): 100
Plant response rating, Nightshade [11, 15]: 50
Plant response rating, Nightshade [11, 22]: 100
Nightshade plant response rating ([11]; 0 to 100 scale): 100
Plant response rating, Bermudagrass [12, 23]: 100
Plant response rating, Bermudagrass [12, 24]: 50
Plant response rating, Bermudagrass [12, 25]: 60
Plant response rating, Bermudagrass [12, 26]: 85
Bermudagrass plant response rating [12, 27]: 100
Plant response rating, Bermudagrass [12, 28]: 85
Plant response rating, Bermudagrass [12, 29]: 100
Bermudagrass plant response rating [12, 30]: 100
Plant response rating, Morningglory [13, 23]: 100
Plant response rating, Morningglory [13, 25]: 75
Plant response rating, Morningglory [13, 26]: 75
Plant response rating, Morningglory [13, 28]: 0
Plant response rating, Morningglory [13, 29]: 0
Morningglory plant response rating [13, 30]: 15
Plant response rating, Galium ([14]; 250 g ai/ha, 0 to 100 scale): 85
Plant response rating, Galium [14, 15]: 70
Plant response rating, Galium [14, 22]: 80
Galium plant response rating ([14]; 0 to 100 scale): 85
